Assay results taken from patent US20140315812A1, “AMORPHOUS EZATIOSTAT ANSOLVATE” (Telik, Inc., priority 2011, published 2014).
Read-outs that look alike come from different tables or passages of the source.

Experiments:
[1] = Stability of the amorphous form by visual inspection after storage; format: physicochemical
Description: The stability of the amorphous form was evaluated by visual inspection of a sample of the amorphous form prepared above after being stored at about 0-5° C. for about 8 months.

[2] = test system: HL-60 promyelocytic leukemia cells; conditions: in vitro; cited from earlier work
[3] = in vitro; cited from earlier work
[4] = in vivo; cited from earlier work
[5] = test system: hematopoietic progenitor cells; conditions: normal human peripheral blood; cited from earlier work
[6] = test system: white blood cell production; conditions: cited from earlier work
[7] = ezatiostat hydrochloride in a liposomal injectable formulation, MDS patients; cited from earlier work

Row | Compound | visual inspection (color, texture, flowability, crystal formation) ([1]; stored at about 0-5° C. for about 8 months) | time for which the amorphous form is stable ([1]; under 0-5° C.) | differentiation of HL-60 promyelocytic leukemia cells [2] | potentiation of the activity of cytotoxic agents [3] | potentiation of the activity of cytotoxic agents [4] | colony formation of hematopoietic progenitor cells [5] | white blood cell production ([6]; animals in which white blood cells were depleted by treatment with cisplatin or fluorouracil) | white blood cell production ([6]; normal animals) | hematologic improvement [7] | tolerability [7]
1 | CCOC(=O)[C@@H](N)CCC(=O)N[C@@H](CSCc1ccccc1)C(=O)N[C@@H](C(=O)OCC)c1ccccc1.Cl [amorphous form, ezatiostat hydrochloride] | No change with respect to color, texture and flowability of the sample and no crystal formation was observed | at least 8 months | – | – | – | – | – | – | – | –
2 | CCOC(=O)[C@@H](N)CCC(=O)N[C@@H](CSCc1ccccc1)C(=O)N[C@@H](C(=O)OCC)c1ccccc1 [Ezatiostat] | – | – | induce the differentiation | potentiate the activity of cytotoxic agents | potentiate the activity of cytotoxic agents | stimulate colony formation of all three lineages | increase white blood cell production | increase white blood cell production | multi-lineage hematologic improvement | well tolerated
